According to patent publication US20110065712A1, “TRICYCLIC COMPOUNDS AND PHARMACEUTICAL USES THEREOF” (CYLENE PHARMACEUTICALS , INC., priority 2009, published 2011):

Experiments:
recombinant Pim-1 = recombinant Pim-1 (Homo sapiens, UniProt P11309); experiment: Pim-1 assay (33P-ATP, filter plate); format: biochemical; conditions: read-out: PIM1: IC50
Procedure: The following procedure was used to assay the Pim-1 kinase activity of compounds of the invention. Other methods for assaying Pim-1 and other Pim kinases, as well as methods to assay for activity against the various kinases disclosed herein are known in the art.
In a final reaction volume of 50 ul, recombinant Pim-1 (1 ng) was incubated with 12 mM MOPS pH 7.0, 0.4 mM EDTA, glycerol 1%, brij 35 0.002%, 2-mercaptoethanol 0.02%, BSA 0.2 mg/ml, 100 uM KKRNRTLTK, 10 mM MgAcetate, 15 uM ATP, [γ-^33P-ATP] (specific activity approx. […]), DMSO 4% and test inhibitor compound at the required concentration. The reaction was initiated by the addition of the magnesium ATP mixture. After 40 min incubation at 23° C., the reactions were quenched by the addition of 100 ul 0.75% Phosphoric acid, and the labeled peptide collected by filtration through a phosphocellulose filter plate. The plate was washed 4 times with 0.075% phosphoric acid (100 ul per well) and then, after the addition of scintillation fluid (20 ul per well), the counts were measured by a scintillation counter.

recombinant human Pim-2 = recombinant human Pim-2 (Homo sapiens, UniProt Q9P1W9); experiment: PIM-2 assay (33P-ATP, filter plate); format: biochemical; conditions: read-out: PIM2: IC50
Procedure: Test compounds dissolved and diluted in DMSO (2 μl) were added to a reaction mixture comprising 10 μl of 5× Reaction Buffer (40 mM MOPS pH 7.0, 5 mM EDTA), 10 μl of recombinant human Pim-2 solution (4 ng Pim-2 dissolved in dilution buffer (20 mM MOPS pH 7.0; EDTA 1 mM; 5% Glycerol; 0.01% Brij 35; […]; […] 2-mercaptoethanol; 1 mg/ml BSA)) and 8 ul of water. Reactions were initiated by the addition of 10 ul of ATP Solution (49% (15 mM MgCl2; 75 uM ATP) 1% ([γ-^33P]ATP: Stock 1mCi/1000; 3000Ci/mmol (Perkin Elmer)) and 10 ul of substrate peptide solution (RSRSSYPAGT, dissolved in water at a concentration of 1 mM), Reactions were maintained for 10 min at 30° C. The reactions were quenched with 100 ul of 0.75% phosphoric acid, then transferred to and filtered through a Phosphocellulose filter plate (Millipore, MSPH-N6B-50). After washing each well 4 times with 0.75% phosphoric acid, scintillation fluid (20 uL) was added to each well and the residual radioactivity was measured using a Wallac […] counter.

Chain of recombinant Pim-1 (P11309 whole entry): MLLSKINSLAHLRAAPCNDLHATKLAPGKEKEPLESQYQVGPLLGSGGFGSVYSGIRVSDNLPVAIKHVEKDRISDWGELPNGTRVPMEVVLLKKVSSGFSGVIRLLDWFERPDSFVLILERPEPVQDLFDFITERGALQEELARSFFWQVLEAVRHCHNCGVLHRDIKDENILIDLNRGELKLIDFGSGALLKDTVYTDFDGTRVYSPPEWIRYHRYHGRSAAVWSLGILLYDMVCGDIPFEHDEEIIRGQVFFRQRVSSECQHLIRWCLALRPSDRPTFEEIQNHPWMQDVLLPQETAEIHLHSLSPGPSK
Chain of recombinant human Pim-2 (Q9P1W9 whole entry): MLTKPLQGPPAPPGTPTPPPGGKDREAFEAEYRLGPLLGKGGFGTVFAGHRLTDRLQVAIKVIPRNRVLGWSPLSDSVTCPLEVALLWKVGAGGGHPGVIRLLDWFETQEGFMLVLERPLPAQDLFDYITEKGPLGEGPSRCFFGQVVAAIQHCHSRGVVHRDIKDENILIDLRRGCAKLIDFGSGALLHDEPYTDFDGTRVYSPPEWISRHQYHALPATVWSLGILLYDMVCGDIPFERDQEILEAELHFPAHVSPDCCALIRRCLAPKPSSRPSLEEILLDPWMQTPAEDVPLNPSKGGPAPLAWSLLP

IC50 (recombinant Pim-1): < 1 µM
IC50 (recombinant human Pim-2): < 1 µM
Structure (SMILES): NC(=O)c1cnn2c1nc(Nc1ccccc1Cl)c1ccccc12 [Compound B, 5-(2-chlorophenylamino)pyrazolo[1,5-a]quinazoline-3-carboxamide]
